# Test results taken from paper PMC8222713, “Variation of Two S3b Residues in KV4.1–4.3 Channels Underlies Their Different Modulations by Spider Toxin κ-LhTx-1” (Frontiers in Pharmacology, 2021).
# Where a SMILES comes first, the peptide text is derived from it. Bridges are numbered along the chain shown (N, C = ends).
# Target: T1, KV4.2 channel (rKV4.2) (Rattus norvegicus, UniProt Q63881)
# T1 construct: expressed in transfected cells; host or cells: CHO-K1 (transient, co-transfected with pEGFP-N1 and hKChIP1)
# T1 sequence (Q63881 1-630): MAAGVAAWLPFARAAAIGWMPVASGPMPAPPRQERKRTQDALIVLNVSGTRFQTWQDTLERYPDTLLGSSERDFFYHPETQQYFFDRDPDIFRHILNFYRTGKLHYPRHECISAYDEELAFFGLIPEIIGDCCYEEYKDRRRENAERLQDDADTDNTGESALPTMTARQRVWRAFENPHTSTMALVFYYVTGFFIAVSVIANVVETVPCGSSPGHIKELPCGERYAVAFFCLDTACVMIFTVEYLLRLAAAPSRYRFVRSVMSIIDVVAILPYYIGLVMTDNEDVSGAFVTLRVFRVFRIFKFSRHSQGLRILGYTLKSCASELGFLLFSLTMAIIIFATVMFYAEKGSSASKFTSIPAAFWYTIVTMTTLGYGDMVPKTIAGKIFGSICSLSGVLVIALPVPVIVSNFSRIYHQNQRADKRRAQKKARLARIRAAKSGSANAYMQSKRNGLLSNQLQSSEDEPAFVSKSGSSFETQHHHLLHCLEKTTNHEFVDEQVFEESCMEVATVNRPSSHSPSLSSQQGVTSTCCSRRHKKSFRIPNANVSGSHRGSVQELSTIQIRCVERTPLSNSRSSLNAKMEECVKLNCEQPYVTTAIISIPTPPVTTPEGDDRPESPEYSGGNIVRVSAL
# T1 sequence (Q9NZI2 1-227 partner): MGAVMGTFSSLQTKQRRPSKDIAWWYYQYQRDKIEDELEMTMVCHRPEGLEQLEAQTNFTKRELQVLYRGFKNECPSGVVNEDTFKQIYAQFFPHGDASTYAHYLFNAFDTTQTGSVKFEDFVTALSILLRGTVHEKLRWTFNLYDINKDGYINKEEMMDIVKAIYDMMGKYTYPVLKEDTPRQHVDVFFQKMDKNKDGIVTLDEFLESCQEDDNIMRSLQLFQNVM
# Experiment: Whole-cell patch clamp, KV4.2 (with hKChIP1) in CHO-K1 cells
# Format: cell-based
# Protocol: The cDNA of hKV1.1, hKV1.3, rKV1.4, hKV1.5, rKV2.1, hKV3.1–3.4, mKV4.1, rKV4.2, and rKV4.3 were subcloned in the eukaryotic expression vector pCDNA3.1 or pCMV-blank. Channel mutants were made by a site-directed mutation method. Briefly, a pair of oppositely directed primers with 15 bp overlap at their 5′ ends and the designed mutation site were used to amplify the parental channel plasmid, then the PCR mix was treated with DpnI to remove the template. 10 μL digestion mix was directly used to transform 100 μL DH5α chemical competent cells. The correct mutation made by this procedure was finally confirmed by DNA sequencing. CHO-K1 cells (ATCC® CCL-61™) were grown in DMEM-F12 mixed medium (1:1) supplemented with 10% FBS and maintained in standard conditions (saturated humidity, 37°C, 5% CO2). Channel plasmid was co-transfected with pEGFP-N1 (encodes the green fluoresence protein) into CHO-K1 cells using lipofectamine 2000 following the manufacturer’s instructions. 4–6 h after transfection, cells were seeded onto poly-lysine (PLL) coated coverslips, and 24–36 h later, transfected cells were ready for patch-clamp analysis. It should be note that KV4.2 and its mutants were also co-expressed with hKChIP1 to promote their functional expressions.
# Whole-cell patch clamp recording was performed in an electrophysiology platform equipped with MultiClamp 700B amplifier and Axon Digidata 1550 AD/DA convertor (Axon Instruments, Irvine, CA, United States). Data were acquired using the pClamp software (Axon Instruments, Irvine, CA, United States). All experiments were performed at room temperature. The bath solution contains (in mM): 140 NaCl, 5 KCl, 1 MgCl2, 2 CaCl2, 10 glucose, and 10 HEPES (pH = 7.3). The pipette solution contains (in mM): 140 KCl, 2.5 MgCl2, 11 EGTA, and 10 HEPES (pH = 7.3). Series resistance was kept below 10 MΩ and compensated to 80%. The concentration–response curves were fitted by a Hill logistic equation to estimate the potency (IC50) of the toxin. The whole cell conductance (G) at each depolarizing voltage (V) was determined using the equation: G = I/(V−Vrev), where I and Vrev represents the current amplitude and the reversal potential, respectively. In the present study, Vrev for K^+ current is determined to be −85.61 mV using the Nernst equation. G-V curve was obtained by plotting the normalized G as a function of V and fitted by the Boltzmann equation: y = 1/{1 + exp [(Va−V)/K]}, in which Va, V, and K represents half-maximum activation voltage, test voltage and slope factor, respectively. The steady-state fast inactivation of KV4 channels was measured using a classical two-pulses protocol: cell was held at −120 mV, and a train of conditional voltages (−120–40 mV, in 10 mV increment, 1,000 ms) were applied to induce channel inactivation, followed by a +60 mV test pulse (300 ms) to assess the proportion of non-inactivated channels; the sweep interval was set to 10 s. Currents at the test pulse (I) were normalized to the maximum value (Imax) and plotted as a function of the conditional voltage (V), the curve was fitted by the Boltzmann equation: I/Imax = A + (1−A)/{1 + exp [(V−Vh)/K]}, where Vh is the half-maximum inactivation voltage, A represents the minimum channel availability, and K is the slope factor. Gating currents of KV4.1–4.3 channels were measured as previously reported ([Tilley et al., 2019]). Briefly, the ionic pore currents were abolished by replacing K^+ with NMDG^+ in the pipette solution, and 10 µM Cs^+ was present in the bath solution to occupy the selectivity filter of KV channels to prevent decay of the gating currents during recording.
# Data were presented as MEAN ± SEM, n represents the number of separate experimental cells. Data were analyzed using the software Clampfit 10.5 (Axon Instruments, Irvine, CA, United States), Graphpad Prism 5.01 (GraphPad Software, La Jolla, CA, United States) and Excel 2010 (Microsoft Corporation, Redmond, WA, United States). […]
# [1] = 10 μM κ-LhTx-1, KV4.2, G-V, mean ± SEM, n = 8
# [2] = 10 μM κ-LhTx-1, KV4.2, two-pulse protocol, mean ± SEM, n = 6
smiles,measurement,setting,value
"CC[C@H](C)[C@@H]1NC(=O)[C@H](CCC(N)=O)NC(=O)[C@@H]2CSSC[C@@H]3NC(=O)[C@H](CC(C)C)NC(=O)[C@H](CC(N)=O)NC(=O)[C@H](CCSC)NC(=O)[C@H](Cc4c[nH]c5ccccc45)NC(=O)[C@H](CO)NC(=O)[C@H](C)NC(=O)[C@@H](NC(=O)[C@H](CCC(=O)O)NC(=O)[C@H](CCC(N)=O)NC(=O)[C@H](C)NC(=O)[C@H](CC(=O)O)NC(=O)[C@@H](N)CCC(=O)O)CSSC[C@H](NC(=O)[C@H](CSSC[C@@H](C(=O)N[C@@H](CCCCN)C(=O)N[C@@H](Cc4ccc(O)cc4)C(=O)N[C@@H](CCCCN)C(=O)N[C@@H](CC(C)C)C(N)=O)NC(=O)[C@H](Cc4c[nH]c5ccccc45)NC1=O)NC(=O)[C@H](CCCCN)NC(=O)[C@H](CCCCN)NC(=O)[C@H](CCC(=O)O)NC(=O)CNC3=O)C(=O)N[C@@H](CCC(=O)O)C(=O)NCC(=O)N[C@@H](Cc1ccc(O)cc1)C(=O)N[C@@H](C(C)C)C(=O)N2 [κ-LhTx-1] (H-EDAQECASWMNLCGEKKCCEGYVCQIWCKYKL-NH2; disulfide 6-19, 13-24, 18-28 (inferred); N-terminus and C-terminus assumed)",Va (steady-state activation),[1],30.24 ± 1.82 mV
same,"k, slope factor (steady-state activation)",[1],21.99 ± 0.42 mV
same,Vh (steady-state inactivation),[2],-69.67 ± 1.87 mV
same,"k, slope factor (steady-state inactivation)",[2],7.22 ± 0.26 mV
same,reversibility of inhibition,KV4.2,in a reversible manner
same,voltage-dependence of inhibition,"KV4.2, 10 µM, inhibition ratio at each depolarizing voltage, n = 5–8",decreased quickly with the increment of the depolarizing voltage
same,I-V relationship shift,"KV4.2, 10 µM, n = 5–8",only a small shift
same,current inhibition at Va,KV4.2 at Va depolarizing voltage,almost fully inhibited
same,∆Va (steady-state activation),"Va shift by 10 μM κ-LhTx-1 vs control, KV4.2, mean ± SEM",39.52 ± 2.55 mV
